In US20260042764A1, “COMPOSITIONS AND METHODS FOR INHIBITION OF KRAS” (TheRas, Inc., priority 2022, published 2026) one finds IC50 data, which are given here for 17 molecules.

One assay has as its system SW620 cells (KRAS G12V). Description: Cell-based pERK HTRF assay in SW620 cell (Biological Example 4). Conditions: Homo sapiens, SW-620, SW620 (KRAS G12V) cells, pERK HTRF. In outline: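 SW620 cells were treated for 4 h with compound in a 9-point half-log series from 1 μM top (0.25% DMSO), then lysed. Phospho-ERK was detected by HTRF with d2 and Eu cryptate antibodies after 4–24 h at room temperature, read at 615 nm emission.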
(Time-resolved FRET reads energy transfer from a long-lived donor to a nearby acceptor.)

The target in assay [1] is T1, Avi-KRAS WT (1-169) GppNHp/RAF1 RBD-3xFLAG (52-151) (Homo sapiens, UniProt P01116).
T1 construct: Avi-KRAS WT (1-169)
T1 sequence (P01116 1-169 isoform P01116-2): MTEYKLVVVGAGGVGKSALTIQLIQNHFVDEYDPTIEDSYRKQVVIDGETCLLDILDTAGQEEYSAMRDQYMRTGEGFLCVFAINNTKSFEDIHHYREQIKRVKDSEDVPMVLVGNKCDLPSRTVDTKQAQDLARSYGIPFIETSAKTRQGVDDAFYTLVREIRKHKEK
Description: Raf1-KRAS WT-GppNHP disruption HTRF assay (Biological Example 1). The class given is binding. The following applies: KRAS WT-GppNHp/RAF1 RBD HTRF. In outline: (§1)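 Measured with a KRAS/RAF1 HTRF assay at pH 7.5 in 10% DMSO, with two 1 h room-temperature incubations with shaking.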

The target of assay [2] is T2, Avi-KRAS G12R (1-169) GppNHp/RAF1 RBD-3xFLAG (52-151) (Homo sapiens, UniProt P01116, G12R).
T2 construct: Avi-KRAS G12R (1-169)
T2 sequence (P01116 1-169 isoform P01116-2 G12R): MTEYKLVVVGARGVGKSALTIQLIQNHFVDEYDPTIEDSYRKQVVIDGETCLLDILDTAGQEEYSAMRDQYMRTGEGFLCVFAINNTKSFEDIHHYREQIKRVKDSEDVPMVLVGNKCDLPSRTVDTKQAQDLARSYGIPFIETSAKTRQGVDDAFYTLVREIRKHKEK
Description: Raf1-KRAS G12R-GppNHP disruption HTRF assay (Biological Example 1). The class given is binding. Conditions: KRAS G12R-GppNHp/RAF1 RBD HTRF. In outline:
as §1

The target in assay [3] is T3, Avi-KRAS G12D (1-169) GppNHp/RAF1 RBD-3xFLAG (52-151) (Homo sapiens, UniProt P01116, G12D).
T3 construct: Avi-KRAS G12D (1-169)
T3 sequence (P01116 1-169 isoform P01116-2 G12D): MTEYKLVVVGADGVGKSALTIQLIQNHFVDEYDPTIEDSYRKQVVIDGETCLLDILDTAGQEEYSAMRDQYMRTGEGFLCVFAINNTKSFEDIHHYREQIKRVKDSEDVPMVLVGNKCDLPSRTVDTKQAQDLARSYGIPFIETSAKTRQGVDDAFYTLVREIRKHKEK
Description: Raf1-KRAS G12D-GppNHP disruption HTRF assay (Biological Example 1). The class given is binding. Conditions: KRAS G12D-GppNHp/RAF1 RBD HTRF. In outline: as §1

The subject of the next assay is GP2d cells (KRAS G12D). Description: Cell-based pERK HTRF assay in GP2d cell (Biological Example 2). The following applies: GP2d (KRAS G12D) cells, pERK HTRF. The gist of the method:
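60 min compound, 0.25% DMSO, 9-pt half-log curve from 1 μM or 100 nM; DMEM/10% FBS.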

The target of assay [4] is T4, Avi-KRAS G12V (1-169) GppNHp/RAF1 RBD-3xFLAG (52-151) (Homo sapiens, UniProt P01116, G12V).
T4 construct: Avi-KRAS G12V (1-169)
T4 sequence (P01116 1-169 isoform P01116-2 G12V): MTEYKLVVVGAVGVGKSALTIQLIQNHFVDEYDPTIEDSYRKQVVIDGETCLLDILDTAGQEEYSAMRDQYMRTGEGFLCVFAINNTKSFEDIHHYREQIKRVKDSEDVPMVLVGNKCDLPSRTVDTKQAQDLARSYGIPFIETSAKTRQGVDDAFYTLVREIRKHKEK
Description: Raf1-KRAS G12V-GppNHP disruption HTRF assay (Biological Example 1). The following applies: KRAS G12V-GppNHp/RAF1 RBD HTRF. The class given is binding. In outline:
as §1

The IC50 is the concentration at which inhibition is half-maximal. The low end stands for greater potency, the high end for weaker potency. Turning to `CC(=O)N1C[C@@H](N(C)c2nc(OC[C@@]34CCCN3C[C@H](F)C4)nc3c(F)c(-c4ccc(F)c5sc(N)c(C#N)c45)c(C(F)(F)F)cc23)C[C@@H]1CF` [Compound 454], the 50% inhibitory concentration (IC50) in the assay on SW620 cells (KRAS G12V) was under 100 nM; in assay [1], 100 to 1000 nM; in assay [2] it was 100 to 1000 nM; in assay [3] it was 100 to 1000 nM; in the assay with GP2d cells (KRAS G12D) (GP2d) it was under 100 nM; in assay [4], 100 to 1000 nM.

`CC(=O)N1C[C@@H]2CC[C@H]1CN2c1nc(OC[C@@]23CCCN2C[C@H](F)C3)nc2c(F)c(-c3ccc(F)c4sc(N)c(C#N)c34)c(C(F)(F)F)cc12` [Compound 455]: the IC50 in the assay on SW620 cells (KRAS G12V) was 100 to 1000 nM; in assay [1], 100 to 1000 nM; in assay [2] it was 100 to 1000 nM; in assay [3] it was 100 to 1000 nM; with GP2d cells (KRAS G12D) (GP2d) it was under 100 nM; in assay [4] it was 1000 to 10000 nM.

Consider `N#Cc1c(N)sc2c(F)ccc(-c3c(C(F)(F)F)cc4c(N5C[C@@H]6CC[C@H]5CN6C(=O)C5CC5)nc(OC[C@@]56CCCN5C[C@H](F)C6)nc4c3F)c12` [Compound 456], for which the 50% inhibitory concentration (IC50) with SW620 cells (KRAS G12V) was under 100 nM; in assay [1], 100 to 1000 nM; in assay [2], 100 to 1000 nM; in assay [3] it was 100 to 1000 nM; in the assay on GP2d cells (KRAS G12D) (GP2d), under 100 nM; in assay [4] it was 100 to 1000 nM.

Take `N#Cc1c(N)sc2c(F)ccc(-c3c(C(F)(F)F)cc4c(N5CCc6nocc6C5)nc(OC[C@@]56CCCN5C[C@H](F)C6)nc4c3F)c12` [Compound 457]: the IC50 with SW620 cells (KRAS G12V) is under 100 nM; in assay [1], 100 to 1000 nM; in assay [2] it was 100 to 1000 nM; in assay [3], 100 to 1000 nM; in the assay with GP2d cells (KRAS G12D) (GP2d), under 100 nM; in assay [4], 100 to 1000 nM.

As for `C[C@@H]1[C@H](N(C)c2nc(OC[C@@]34CCCN3C[C@H](F)C4)nc3c(F)c(-c4ccc(F)c5sc(N)c(C#N)c45)c(C(F)(F)F)cc23)CCN1C(=O)C(F)F` [Compound 458], the IC50 in the assay on SW620 cells (KRAS G12V) is under 100 nM; in assay [1], 100 to 1000 nM; in assay [2], 100 to 1000 nM; in assay [3], 100 to 1000 nM; in the assay on GP2d cells (KRAS G12D) (GP2d) it was under 100 nM; in assay [4], 100 to 1000 nM.

Turning to `C[C@@H]1[C@H](N(C)c2nc(OC[C@@]34CCCN3C[C@H](F)C4)nc3c(F)c(-c4ccc(F)c5sc(N)c(C#N)c45)c(C(F)(F)F)cc23)CCN1C(=O)C(C)(F)F` [Compound 459], the IC50 in the assay with SW620 cells (KRAS G12V) was under 100 nM; in assay [1], 100 to 1000 nM; in assay [2] it was 100 to 1000 nM; in assay [3], 100 to 1000 nM; with GP2d cells (KRAS G12D) (GP2d), under 100 nM; in assay [4], 100 to 1000 nM.

On to `C[C@@H]1[C@H](N(C)c2nc(OC[C@@]34CCCN3C[C@H](F)C4)nc3c(F)c(-c4ccc(F)c5sc(N)c(C#N)c45)c(Cl)cc23)CCN1C(=O)CF` [Compound 460], for which the IC50 is under 100 nM in the assay on SW620 cells (KRAS G12V); 100 to 1000 nM in assay [1]; 100 to 1000 nM in assay [2]; 100 to 1000 nM in assay [3]; under 100 nM in the assay on GP2d cells (KRAS G12D); 100 to 1000 nM in assay [4].

Regarding `C[C@@H]1[C@H](N(C)c2nc(OC[C@@]34CCCN3C[C@H](F)C4)nc3c(F)c(-c4ccc(F)c5sc(N)c(C#N)c45)c(C(F)(F)F)cc23)CCN1C(=O)CF` [Compound 461], the IC50 in the assay on SW620 cells (KRAS G12V) is under 100 nM; in assay [1], under 100 nM; in assay [2], 100 to 1000 nM; in assay [3] it was under 100 nM; in the assay with GP2d cells (KRAS G12D), under 100 nM; in assay [4] it was 100 to 1000 nM.

Take `CN(c1nc(OC[C@@]23CCCN2C[C@H](F)C3)nc2c(F)c(-c3ccc(F)c4sc(N)c(C#N)c34)c(C(F)(F)F)cc12)[C@H]1C[C@H](CF)N(C(=O)C2CC2)C1` [Compound 462]: the IC50 with SW620 cells (KRAS G12V) was under 100 nM; in assay [1], 100 to 1000 nM; in assay [2], 100 to 1000 nM; in assay [3], 100 to 1000 nM; with GP2d cells (KRAS G12D) (GP2d) it was under 100 nM; in assay [4] it was 100 to 1000 nM.

On to `CCC(=O)N1C[C@@H](N(CC)c2nc(OC[C@@]34CCCN3C[C@H](F)C4)nc3c(F)c(-c4ccc(F)c5sc(N)c(C#N)c45)c(C(F)(F)F)cc23)C[C@@H]1C` [Compound 464], for which the IC50 in the assay with SW620 cells (KRAS G12V) is under 100 nM; in assay [1] it was 100 to 1000 nM; in assay [2], under 100 nM; in assay [3], under 100 nM; in the assay with GP2d cells (KRAS G12D) (GP2d) it was under 100 nM; in assay [4] it was under 100 nM.

With `CN(C)C(=O)[C@H]1CN(c2nc(OC[C@@]34CCCN3C[C@H](F)C4)nc3c(F)c(-c4ccc(F)c5sc(N)c(C#N)c45)c(C(F)(F)F)cc23)CCO1` [Compound 465], the IC50 is under 100 nM in the assay with SW620 cells (KRAS G12V); 100 to 1000 nM in assay [1]; 100 to 1000 nM in assay [2]; under 100 nM in assay [3]; under 100 nM in the assay on GP2d cells (KRAS G12D) (GP2d); 100 to 1000 nM in assay [4].

As to `CN(C)C(=O)c1nnn2c1CN(c1nc(OC[C@@]34CCCN3C[C@H](F)C4)nc3c(F)c(-c4ccc(F)c5sc(N)c(C#N)c45)c(C(F)(F)F)cc13)CC2` [Compound 466], the IC50 was under 100 nM in the assay on SW620 cells (KRAS G12V); 100 to 1000 nM in assay [1]; 100 to 1000 nM in assay [2]; 100 to 1000 nM in assay [3]; under 100 nM in the assay with GP2d cells (KRAS G12D) (GP2d); 100 to 1000 nM in assay [4].

On to `CCN(c1nc(OC[C@@]23CCCN2C[C@H](F)C3)nc2c(F)c(-c3ccc(F)c4sc(N)c(C#N)c34)c(C(F)(F)F)cc12)[C@H]1C[C@H](C)N(C(=O)C(C)C)C1` [Compound 471], for which the IC50 with SW620 cells (KRAS G12V) was under 100 nM; in assay [1], 100 to 1000 nM; in assay [2] it was 100 to 1000 nM; in assay [3], 100 to 1000 nM; in the assay with GP2d cells (KRAS G12D) (GP2d), under 100 nM; in assay [4], 100 to 1000 nM.

Consider `CN(C)C(=O)[C@@H]1CN(c2nc(OC[C@@]34CCCN3C[C@H](F)C4)nc3c(F)c(-c4ccc(F)c5sc(N)c(C#N)c45)c(C(F)(F)F)cc23)CCO1` [Compound 472], for which the IC50 with SW620 cells (KRAS G12V) is under 100 nM; in assay [1], 1000 to 10000 nM; in assay [2] it was 1000 to 10000 nM; in assay [3], 100 to 1000 nM; in the assay on GP2d cells (KRAS G12D) (GP2d), under 100 nM; in assay [4], 1000 to 10000 nM.

Consider `C[C@H]1[C@H](O)CCCN1c1nc(OC[C@@]23CCCN2C[C@H](F)C3)nc2c(F)c(-c3ccc(F)c4sc(N)c(C#N)c34)c(C(F)(F)F)cc12` [Compound 473], for which the IC50 with SW620 cells (KRAS G12V) is under 100 nM; in assay [1] it was 100 to 1000 nM; in assay [2] it was 100 to 1000 nM; in assay [3] it was 100 to 1000 nM; with GP2d cells (KRAS G12D) (GP2d), under 100 nM; in assay [4], 100 to 1000 nM.

Regarding `C[C@H]1C[C@H](N(c2nc(OC[C@@]34CCCN3C[C@H](F)C4)nc3c(F)c(-c4ccc(F)c5sc(N)c(C#N)c45)c(C(F)(F)F)cc23)C2CC2)CN1C(=O)C1CC1` [Compound 474], the IC50 in the assay with SW620 cells (KRAS G12V) is under 100 nM; in assay [1], 100 to 1000 nM; in assay [2] it was 100 to 1000 nM; in assay [3], 100 to 1000 nM; with GP2d cells (KRAS G12D) (GP2d), under 100 nM; in assay [4], 100 to 1000 nM.

With `CCN(c1nc(OC[C@@]23CCCN2C[C@H](F)C3)nc2c(F)c(-c3ccc(F)c4sc(N)c(C#N)c34)c(C(F)(F)F)cc12)[C@@H]1CN(C(=O)C(C)C)C[C@@H]1F` [Compound 475], the IC50 with SW620 cells (KRAS G12V) was under 100 nM; in assay [1], 100 to 1000 nM; in assay [2], 100 to 1000 nM; in assay [3], 100 to 1000 nM; in the assay on GP2d cells (KRAS G12D) (GP2d) it was under 100 nM; in assay [4], 100 to 1000 nM.
